What follows are compounds tested on KMO (assay: KMO activity assay: L-Kynurenine hydroxylation to 3-Hydroxy-Kynurenine, quantified by LC/MS). Details: compound at 10 uM; footnote: some portion of activity of amides may be due to contribution of acid precursor.
Format: biochemical
Summary of the method: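 Enzyme: KMO from mitochondria isolated from CHO cells expressing GST-His-KMO, with L-kynurenine as substrate (stock 10 mM in 100 mM potassium phosphate, pH 7.4). Conversion to 3-hydroxy-kynurenine quantified by LC/MS multiple reaction monitoring; compound stocks 10 mM in DMSO.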

Point of comparison: O=C(O)c1cc(-c2cccc(Br)c2)ncn1 [6-(3-Bromo-phenyl)-pyrimidine-4-carboxylic acid], “% Inhibition at 10 uM” value 102.1%. Against it:
- O=C(Nc1ccc(OCCN2CCOCC2)cc1)c1cc(-c2ccc(Cl)c(Cl)c2)ncn1 [6-(3,4-Dichloro-phenyl)-pyrimidine-4-carboxylic acid [4-(2-morpholin-4-yl-ethoxy)-phenyl]-amide] — lower, 100.44%
- CN1CCN(c2ccc(NC(=O)c3cc(-c4ccc(Cl)c(Cl)c4)ncn3)cc2)CC1.Cl [6-(3,4-Dichloro-phenyl)-pyrimidine-4-carboxylic acid [4-(4-methyl-piperazin-1-yl)-phenyl]-amide hydrochloride salt] — lower, 89.6%
- CC(C)(O)c1nnc(NC(=O)c2cc(-c3ccc(Cl)c(Cl)c3)ncn2)o1 [6-(3,4-Dichloro-phenyl)-pyrimidine-4-carboxylic acid [5-(1-hydroxy-1-methyl-ethyl)-[1,3,4]oxadiazol-2-yl]-amide] — higher, 102.115%
- Cl.O=C(Nc1ccc(OCCN2CCOCC2)nc1)c1cc(-c2ccc(Cl)c(Cl)c2)ncn1 [6-(3,4-Dichloro-phenyl)-pyrimidine-4-carboxylic acid [6-(2-morpholin-4-yl-ethoxy)-pyridin-3-yl]-amide hydrochloride salt] — lower, 86.37%
- CNC(=O)c1cc(-c2ccc(Cl)c(Cl)c2)ncn1 [6-(3,4-Dichloro-phenyl)-pyrimidine-4-carboxylic acid methylamide] — lower, 100.31%
- O=C(Nc1ncco1)c1cc(-c2ccc(Cl)c(Cl)c2)ncn1 [6-(3,4-Dichloro-phenyl)-pyrimidine-4-carboxylic acid oxazol-2-yl-amide] — lower, 101.04%
- O=C(Nc1cnccn1)c1cc(-c2ccc(Cl)c(Cl)c2)ncn1 [6-(3,4-Dichloro-phenyl)-pyrimidine-4-carboxylic acid pyrazin-2-yl-amide] — lower, 100.28%
- O=C(Nc1cccnn1)c1cc(-c2ccc(Cl)c(Cl)c2)ncn1 [6-(3,4-Dichloro-phenyl)-pyrimidine-4-carboxylic acid pyridazin-3-yl-amide] — lower, 100.38%
- Cc1nc(C(=O)O)cc(-c2ccc(F)c(F)c2)n1 [6-(3,4-Difluoro-phenyl)-2-methyl-pyrimidine-4-carboxylic acid] — lower, 100%
- C[C@H](NC(=O)c1cc(-c2ccc(F)c(F)c2)ncn1)c1ccccc1 [6-(3,4-Difluoro-phenyl)-pyrimidine-4-carboxylic acid ((S)-1-phenyl-ethyl)-amide] — lower, 100.39%
- CON(C)C(=O)c1cc(-c2ccc(Cl)c(Cl)c2)ncn1 [6-(3,4-dichloro-phenyl)-pyrimidine-4-carboxylic acid methoxy-methyl-amide] — higher, 103.74%
- O=C(O)c1ncnc(-c2ccc(Cl)c(Cl)c2)c1CO [6-(3,4-dichlorophenyl)-5-(hydroxymethyl)pyrimidine-4-carboxylate] — lower, 95%
- O=C(NO)c1cc(-c2ccc(Cl)c(Cl)c2)ncn1 [6-(3,4-dichlorophenyl)-N-hydroxypyrimidine-4-carboxamide] — lower, 73%
- Cc1nnc(NC(=O)c2cc(-c3cccc(Br)c3)ncn2)o1 [6-(3-Bromo-phenyl)-pyrimidine-4-carboxylic acid (5-methyl-[1,3,4]oxadiazol-2-yl)-amide] — higher, 102.59%
- O=C(Nc1cccnc1)c1cc(-c2cccc(Cl)c2F)ncn1 [6-(3-Chloro-2-fluoro-phenyl)-pyrimidine-4-carboxylic acid pyridin-3-yl-amide] — lower, 100.83%
- C[C@H](NC(=O)c1cc(-c2ccc(F)c(Cl)c2)ncn1)c1ccccc1 [6-(3-Chloro-4-fluoro-phenyl)-pyrimidine-4-carboxylic acid ((S)-1-phenyl-ethyl)-amide] — lower, 89.07%
- Cc1noc(C)c1NC(=O)c1cc(-c2cccc(Cl)c2)ncn1 [6-(3-Chloro-phenyl)-pyrimidine-4-carboxylic acid (3,5-dimethyl-isoxazol-4-yl)-amide] — lower, 89.92%
- C[C@H](NC(=O)c1cc(-c2cccc(Cl)c2)ncn1)c1ccncc1 [6-(3-Chloro-phenyl)-pyrimidine-4-carboxylic acid ((S)-1-pyridin-4-yl-ethyl)-amide] — lower, 96.86%
- C[C@H](NC(=O)c1cc(-c2cccc(F)c2)ncn1)c1ccccc1 [6-(3-Fluoro-phenyl)-pyrimidine-4-carboxylic acid ((S)-1-phenyl-ethyl)-amide] — lower, 90.15%
- O=C(Nc1cncnc1)c1cc(-c2cccc(F)c2)ncn1 [6-(3-Fluoro-phenyl)-pyrimidine-4-carboxylic acid pyrimidin-5-yl-amide] — lower, 81.88%
- Cc1ccc(NC(=O)c2cc(-c3ccc(Cl)c(F)c3)ncn2)c(C)n1 [6-(4-Chloro-3-fluoro-phenyl)-pyrimidine-4-carboxylic acid (2,6-dimethyl-pyridin-3-yl)-amide] — lower, 52.81%
- C[C@H](NC(=O)c1cc(-c2ccc(Cl)c(F)c2)ncn1)c1ccccc1 [6-(4-Chloro-3-fluoro-phenyl)-pyrimidine-4-carboxylic acid ((S)-1-phenyl-ethyl)-amide] — lower, 46.62%
- C[C@H](NC(=O)c1cc(-c2ccc(Cl)cc2)ncn1)c1ccccc1 [6-(4-Chloro-phenyl)-pyrimidine-4-carboxylic acid ((S)-1-phenyl-ethyl)-amide] — lower, 68.94%
- O=C(Nc1cccnc1)c1cc(-c2ccc(Cl)cc2)ncn1 [6-(4-Chloro-phenyl)-pyrimidine-4-carboxylic acid pyridin-3-yl-amide] — lower, 67.93%
- O=C(Nc1cncnc1)c1cc(-c2ccc(Cl)cc2)ncn1 [6-(4-Chloro-phenyl)-pyrimidine-4-carboxylic acid pyrimidin-5-ylamide] — lower, 56.49%
- C[C@H](NC(=O)c1cc(-c2cc(Cl)ccc2F)ncn1)c1ccccc1 [6-(5-Chloro-2-fluoro-phenyl)-pyrimidine-4-carboxylic acid ((S)-1-phenyl-ethyl)-amide] — lower, 68.66%
- O=C(Nc1cccnc1)c1cc(-c2cc(Cl)ccc2F)ncn1 [6-(5-Chloro-2-fluoro-phenyl)-pyrimidine-4-carboxylic acid pyridin-3-yl-amide] — lower, 84.21%
- O=C(O)c1cc(-c2ccc3ccccc3c2)ncn1 [6-Naphthalen-2-yl-pyrimidine-4-carboxylic acid] — lower, 96%
- N[C@@H](CCCCNC(=O)c1cc(-c2ccc(Cl)c(Cl)c2)ncn1)C(=O)O [(2S)-2-amino-6-{[6-(3,4-dichlorophenyl)pyrimidin-4-yl]formamido}hexanoic acid] — lower, 85%
- O=C1NC(=O)[C@@H]2CN(C(=O)c3cc(-c4ccc(Cl)c(Cl)c4)ncn3)C[C@H]12 [(3aS,6aR)-5-[6-(3,4-Dichloro-phenyl)-pyrimidine-4-carbonyl]-tetrahydro-pyrrolo[3,4-c]pyrrole-1,3-dione] — lower, 95.73%
- O=C(c1cc(-c2ccc(Cl)c(Cl)c2)ncn1)N1CCc2ccc(Cl)cc21 [(6-Chloro-2,3-dihydro-indol-1-yl)-[6-(3,4-dichloro-phenyl)-pyrimidin-4-yl]-methanone] — lower, 98.22%
- N[C@H]1CCN(C(=O)c2cc(-c3ccc(Cl)c(Cl)c3)ncn2)C1 [((S)-3-amino-pyrrolidin-1-yl)-[6-(3,4-dichloro-phenyl)-pyrimidin-4-yl]-methanone] — lower, 93.99%

From US9428464B2, “Kynurenine-3-monooxygenase inhibitors, pharmaceutical compositions, and methods of use thereof” (CHDI Foundation, Inc., priority 2011, dated 2016)
